According to patent US20260285850A1, “SUBSTITUTED OXAZOLIDINONES AND IMIDAZOLINONES AS HERBICIDES” (FMC CORPORATION, priority 2023, published 2026):

Assays:
Type in all cases: in vivo
[1] = tested on: barnyardgrass (Echinochloa crus-galli); assay: Test A preemergence soil spray, visual injury rating 0-100; settings: 10 days
In short: (§1)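 Compounds formulated in a non-phytotoxic solvent with surfactant are sprayed onto soil of freshly planted loam-sand pots ahead of emergence, or onto emerged plants 2-10 cm tall. After a 10-day greenhouse period, each species is scored visually for injury against untreated controls.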

[2] = tested on: blackgrass (Alopecurus myosuroides); assay: as above; settings: 10 days
In short: as §1

corn (Zea mays) [3] = assay: as above; settings: 10 days
In short: as §1

[4] = tested on: green foxtail (Setaria viridis); assay: as above; settings: 10 days
In short: as §1

kochia (Bassia scoparia) [5] = assay: as above; settings: 10 days
In short: as §1

[6] = tested on: oat, wild (wild oat, Avena fatua); assay: as above; settings: 10 days
In short: as §1

[7] = tested on: palmer (palmer amaranth, palmer pigweed, Amaranthus palmeri); assay: as above; settings: 10 days
In short: as §1

[8] = tested on: ragweed (common ragweed, Ambrosia artemisiifolia); assay: as above; settings: 10 days
In short: as §1

[9] = tested on: ryegrass, Italian (italian ryegrass, Lolium multiflorum); assay: as above; settings: 10 days
In short: as §1

soybean (Glycine max) [10] = assay: as above; settings: 10 days
In short: as §1

[11] = tested on: wheat (Triticum aestivum); assay: as above; settings: 10 days
In short: as §1

[12] = tested on: barnyardgrass (Echinochloa crus-galli); assay: Test A postemergence application, visual injury rating 0-100
In short: as §1

[13] = tested on: blackgrass (Alopecurus myosuroides); assay: as above
In short: as §1

corn (Zea mays) [14] = assay: as above
In short: as §1

[15] = tested on: galium (catchweed bedstraw, Galium aparine); assay: as above
In short: as §1

[16] = tested on: green foxtail (Setaria viridis); assay: as above
In short: as §1

kochia (Bassia scoparia) [17] = assay: as above
In short: as §1

[18] = tested on: oat, wild (wild oat, Avena fatua); assay: as above
In short: as §1

[19] = tested on: palmer (palmer amaranth, palmer pigweed, Amaranthus palmeri); assay: as above
In short: as §1

[20] = tested on: ragweed (common ragweed, Ambrosia artemisiifolia); assay: as above
In short: as §1

[21] = tested on: ryegrass, Italian (italian ryegrass, Lolium multiflorum); assay: as above
In short: as §1

soybean (Glycine max) [22] = assay: as above
In short: as §1

[23] = tested on: wheat (Triticum aestivum); assay: as above
In short: as §1

[24] = tested on: barnyardgrass (Echinochloa crusgalli); assay: Test B flooded paddy test, visual plant response rating 0-100; settings: 250 g ai/ha, Flood, applied to paddy water, evaluated after 13 days
In short: (§2)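 2-leaf plants; flood 3 cm over soil; compound dosed into paddy water; depth kept constant; greenhouse 13 d; visual scoring vs controls. Dash = no result.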

[25] = tested on: ducksalad (Heteranthera limosa); assay: as above; settings: 250 g ai/ha, Flood, applied to paddy water, evaluated after 13 days
In short: as §2

rice (Oryza sativa) = assay: as above; settings: 250 g ai/ha, Flood, applied to paddy water, evaluated after 13 days
In short: as §2

[26] = tested on: sedge, umbrella (small-flower umbrella sedge, Cyperus difformis); assay: as above; settings: 250 g ai/ha, Flood, applied to paddy water, evaluated after 13 days
In short: as §2

[27] = 62 g ai/ha, 0 = no effect, 100 = complete control
[28] = 62 g ai/ha, postemergence, 10 days, 0 = no effect, 100 = complete control
[29] = Postemergence, 16 g ai/ha, greenhouse 10 days, 0 no effect, 100 complete control

C=CC1(C(=O)NC2COC(C(=O)OC)C2)CN(c2cc(F)cc(F)c2)C(=O)O1 (centres unmarked) [Compound 171]
Barnyardgrass plant response rating ([1]; 16 g ai/ha, 0 to 100 scale): 0 | Barnyardgrass plant response rating (0-100) [1, 27]: 90 | Blackgrass plant response rating ([2]; 16 g ai/ha, 0 to 100 scale): 20 | Blackgrass plant response rating (0-100) [2, 27]: 90 | Corn plant response rating (corn (Zea mays) [3]; 16 g ai/ha, 0 to 100 scale): 0 | Corn plant response rating (0-100) (corn (Zea mays) [3]; [27]): 40 | Foxtail, Green plant response rating ([4]; 16 g ai/ha, 0 to 100 scale): 0 | Foxtail, Green plant response rating (0-100) [4, 27]: 90 | Kochia plant response rating (kochia (Bassia scoparia) [5]; 16 g ai/ha, 0 to 100 scale): 30 | Kochia plant response rating (0-100) (kochia (Bassia scoparia) [5]; [27]): 40 | Oat, Wild plant response rating ([6]; 16 g ai/ha, 0 to 100 scale): 20 | Oat, Wild plant response rating (0-100) [6, 27]: 90 | Pigweed, Palmer plant response rating ([7]; 16 g ai/ha, 0 to 100 scale): 0 | Pigweed, Palmer plant response rating (0-100) [7, 27]: 70 | Ragweed plant response rating ([8]; 16 g ai/ha, 0 to 100 scale): 0 | Ragweed plant response rating (0-100) [8, 27]: 0 | Ryegrass, Italian plant response rating ([9]; 16 g ai/ha, 0 to 100 scale): 20 | Ryegrass, Italian plant response rating (0-100) [9, 27]: 90 | Soybean plant response rating (soybean (Glycine max) [10]; 16 g ai/ha, 0 to 100 scale): 0 | Soybean plant response rating (0-100) (soybean (Glycine max) [10]; [27]): 20 | Wheat plant response rating ([11]; 16 g ai/ha, 0 to 100 scale): 60 | Wheat plant response rating (0-100) [11, 27]: 90 | Barnyardgrass plant response rating (0-100) [12, 28]: 80 | Barnyardgrass plant response rating (0 to 100 scale) [12, 29]: 70 | Blackgrass plant response rating (0-100) [13, 28]: 70 | Blackgrass plant response rating (0 to 100 scale) [13, 29]: 70 | Corn plant response rating (0-100) (corn (Zea mays) [14]; [28]): 90 | Corn plant response rating (0 to 100 scale) (corn (Zea mays) [14]; [29]): 80 | Galium plant response rating (0-100) [15, 28]: 80 | Galium plant response rating (0 to 100 scale) [15, 29]: 80 | Foxtail, Green plant response rating (0-100) [16, 28]: 90 | Foxtail, Green plant response rating (0 to 100 scale) [16, 29]: 80 | Kochia plant response rating (0-100) (kochia (Bassia scoparia) [17]; [28]): 80 | Kochia plant response rating (0 to 100 scale) (kochia (Bassia scoparia) [17]; [29]): 60 | Oat, Wild plant response rating (0-100) [18, 28]: 90 | Oat, Wild plant response rating (0 to 100 scale) [18, 29]: 90 | Pigweed, Palmer plant response rating (0-100) [19, 28]: 80 | Pigweed, Palmer plant response rating (0 to 100 scale) [19, 29]: 60 | Ragweed plant response rating (0-100) [20, 28]: 30 | Ragweed plant response rating (0 to 100 scale) [20, 29]: 30 | Ryegrass, Italian plant response rating (0-100) [21, 28]: 70 | Ryegrass, Italian plant response rating (0 to 100 scale) [21, 29]: 20 | Soybean plant response rating (0-100) (soybean (Glycine max) [22]; [28]): 80 | Soybean plant response rating (0 to 100 scale) (soybean (Glycine max) [22]; [29]): 70 | Wheat plant response rating (0-100) [23, 28]: 90 | Wheat plant response rating (0 to 100 scale) [23, 29]: 80 | Plant response rating, Barnyardgrass (0 to 100 scale, 0 is no effect and 100 is complete control) [24]: 60 | Plant response rating, Ducksalad (0 to 100 scale, 0 is no effect and 100 is complete control) [25]: 50 | Plant response rating, Rice (0 to 100 scale, 0 is no effect and 100 is complete control) (rice (Oryza sativa)): 45 | Plant response rating, Sedge, Umbrella (0 to 100 scale, 0 is no effect and 100 is complete control) [26]: 45
